According to patent US12552813B2, “Heterocyclic substituted pyrimidopyran compound and use thereof” (Medshine Discovery Inc., priority 2023, dated 2026):

Legend:
Assay type in all cases: cell-based
[1] = system: KRAS^G12D mutant AsPC-1 cells; assay: AsPC-1 cell proliferation assay (3D-CTG method); conditions: Homo sapiens, ASPC1, 168 h, Experimental Example 2, 2,000 cells per well, 7 days incubation
Procedure: 1) ASPC-1 cells were seeded in a transparent 96-well cell culture plate, at a density of 195 μL of cell suspension per well containing 2,000 cells.
2) The compound to be tested was diluted with 100% DMSO to 10 mM as the 1st concentration and then diluted 5 times by a pipette to the 8th concentration, i.e. from 10 mM to 0.13 M. 2 μL of the gradient-diluted compound was added to 48 μL of cell medium for secondary dilution. After mixed, 5 μL of the secondary-diluted compound was added to the corresponding wells of the cell plate containing 195 μL of cells. The cell plate was put into a carbon dioxide incubator and incubated for 7 days.
3) After incubation, 100 μL of cell supernatant was discarded and 3D-CTG was added at a density of 60 μL per well. The cells were shaken and incubated at room temperature and 200 rpm for 20 min, and incubated in an incubator at room temperature for 1 h.
4) 100 μL of supernatant was pipetted from the well plate and transferred to a 96-well black plate with a clear bottom, and the luminescence was read in the BMG.
The original data was converted into the inhibition rate using equation Inhibition %=(Ave_H−Sample)/(Ave_H−Ave_L), and the IC50 value was obtained by curve fitting through four parameters (log(inhibitor) vs. response—Variable slope mode in GraphPad Prism). • H well: Reading of DM well • L well: Reading of Medium 5.

[2] = system: SW620 (KRAS G12V mutant) cell line; assay: SW620 cell in vitro proliferation assay; conditions: Homo sapiens, SW-620, 240 h, 1,000 cells per well, 10 days incubation, 3D CellTiter-Glo
Procedure: RPMI1640 medium, penicillin/streptomycin antibiotics from Gibco, and fetal bovine serum from Hyclone. 3D CellTiter-Glo (cell viability chemiluminescent assay) reagent from Promega. SW620 (KRAS G12V mutant) cell line from ATCC, Envision Multilabel analyzer (PerkinElmer).
The cells were seeded in a 96-well, ultra-low adsorption U-plate, at a density of 80 μL of cell suspension per well containing 1,000 cells. The cell plate was incubated overnight in a carbon dioxide incubator.
The compound to be tested was diluted using a multi-channel pipette by 5 times for 8 concentrations, that was, from 2 mM to 25.6 nM, and double replicates were set up. 78 μL of medium was added to an intermediate plate. Then the gradient-diluted compound was transferred to the intermediate plate at a density of 2 μL per well according to the corresponding position, mixed and transferred at a density of 20 μL per well to a cell plate. […] Another cell plate was prepared, and the signal value read on the day of addition was taken as the maximum value (the Max value in the equation below) to be used in data analysis.
A cell viability chemiluminescent assay reagent was added to the cell plate at a density of 100 μL per well and incubated at room temperature for 30 min to stabilize luminous signals. The readings are taken using a multilabel analyzer. […]

[3] = system: KRAS^G12V mutant H727 cells; assay: H727 cell proliferation assay (3D-CTG method); conditions: Homo sapiens, NCI-H727, 168 h, 2,000 cells per well, 7 days incubation
Procedure: H727 cells from ATCC; RPMI-1640 medium from ATCC; fetal bovine serum from Ausgenex; CellTiter-Glo® 3D assay kit (3D-CTG) from Promega; and CellCarrier-96 Spheroid ULA/CS from PE.
5) The aforementioned cells were seeded in a transparent 96-well cell culture plate, at a density of 195 μL of cell suspension per well containing 2,000 cells.
6) The compound to be tested was diluted with 100% DMSO to 10 mM as the 1st concentration and then diluted 5 times by a pipette to the 8th concentration, i.e. from 10 mM to 0.13 μM. 2 μL of the gradient-diluted compound was added to 48 μL of cell medium for secondary dilution. After mixed, 5 μL of the secondary-diluted compound was added to the corresponding wells of the cell plate containing 195 μL of cells. […]
7) After incubation, 100 μL of cell supernatant was discarded and 3D-CTG was added at a density of 60 μL per well. […] 8) 100 μL of supernatant was pipetted from the well plate and transferred to a 96-well black plate with a clear bottom, and the luminescence was read in the BMG.
The original data was converted into the inhibition rate using equation Inhibition %=(Ave_H−Sample)/(Ave_H−Ave_L), and the IC50 value was obtained by curve fitting through four parameters (log(inhibitor) vs. response—Variable slope mode in GraphPad Prism). • H well: Reading of DMSO well • L well: Reading of Medium 5. […]

[4] = system: KRAS^G12D mutant tumor cell line AsPC-1; assay: Antiproliferative effects of compounds in tumor cell line AsPC-1 (CellTiter-Glo 3D); conditions: Homo sapiens, ASPC1, Experimental Example 1, 7,000 cells per well, ULA plate, 120 h incubation
Procedure: The experiment studies the antiproliferative effects of compounds by detecting the effects of the compounds on in vitro cell activity of the KRAS^G12D mutant tumor cell line AsPC-1.
The cell line was AsPC-1. The tumor type was pancreatic cancer. The cell line was cultured by adherent growth using RPMI 1640+10% FBS. • Ultra Low Cluster-96-well plate (Corning-7007) • Greiner CELLSTAR 96-well plate (#655090) • Promega CellTiter-Glo 3D luminescence cell activity assay kit (Promega-G9683) • 2104-10 EnVision reader, PerkinElmer • RPMI 1640, DMEM, PBS (phosphate buffer), FBS (fetal bovine serum), Antibiotic-antimycotic, L-glutamine, and DMSO (dimethyl sulfoxide)
The tumor cell line was incubated in an incubator at 37° C., 5% CO2 under the culture conditions shown by the culture method. Regular passage was conducted, and the cells in the logarithmic growth phase were taken for seeding.
The cell line was AsPC-1, with a density of 7,000 cells (per well).
A cell suspension is added at a density of 135 μL per well to a ULA culture plate, and the same volume of cell-free medium is added to a blank control plate.
The ULA culture plate was centrifuged at room temperature for 10 min at 1,000 rpm immediately after seeding. Caution: Always handle follow-up actions with care after centrifuging to avoid unnecessary shaking. […]
The luminous signals were detected on a 2104 EnVision reader. […]

IC50 [1]: 0.0118 µM | IC50 [2]: 0.0275 µM | IC50 [3]: 0.0459 µM | IC50 [4]: 0.0061 µM
Compound: C=C1CN2CCC[C@]2(COc2nc3c(c(N4CCCn5nc(C(=O)N(C)C)cc5C4)n2)CO[C@@H](c2c(F)c(N)cc(C#CC)c2C(F)(F)F)C3)C1 (single isomer, unassigned) [Compound 5A]
